Tests used:
[1] = Opposition to trans-urocanic acid photo-induced isomerization (HPLC); conditions: compound 5 mM, irradiation dose 31 mJ·cm−2
Experimental: Test 5: Evidence of the Ability of the (Z)-Isomer Conjugates of Formula (I) to Oppose the Trans-Urocanic Acid Photo-Induced Isomerization
Principle: the aim is to check whether the conjugates according to the invention are capable of opposing the trans-urocanic acid photo-isomerization.
Experimentally, the study was carried out almost identically as in tests 1 and 4 above. Beforehand, it was checked that under defined experimental conditions, trans-urocanic acid generates a significant amount of cis-urocanic acid that can be measured by HPLC analysis. The irradiation dose (1D) was 31 mJ·cm^−2 for a compound concentration of 5 mM.

[2] = Antioxidant potential against squalene hydroperoxidation by singlet oxygen (quenching, methylene blue, UV-B, HPLC); conditions: UV-B radiation dose 1.42 J·cm−2, methylene blue photosensitizer
Experimental: Experimentally, a squalene solution at 5 g/100 mL, a methylene blue solution at 5 mM and a solution of the compound according to the invention (from 1 to 5 mM) or a control compound (methylthiopropylamido acetyl methionine-AMDM) were prepared after being dissolved in 100 mL of methanol (HPLC grade). Then in a UV-B oven, each solution was poured in equal parts into an uncovered Petri dish, in order to be submitted to a radiation dose (1D) of 1.42 J·cm^−2. At the end of the radiation, volumes of the solutions were recovered, adjusted to 20 mL with methanol prior to analysis by HPLC assay and after removal of methylene blue. The “quenching,” rate was then deduced from the following equation: [formula]

HaCaT keratinocytes [3] = experiment: Viability of HaCaT keratinocytes exposed to UV-B cytotoxic doses (MTT method); format: cell-based; conditions: Homo sapiens, light or radiation study, UV-B 100 mJ/cm2, MTT after 24 hours, irradiated untreated control 46, non-irradiated 100, read-out: % cell viability; for viability at 100 µM: 0.1 mM in PBS; for viability at 250 µM: 0.25 mM in PBS; for viability at 500 µM: 0.5 mM in PBS
Experimental: Test 3: Evidence of the Ability of the (Z)-Isomer Conjugates of Formula (I) to Make Viable a Keratinocyte Cell Line Exposed to UV-B Cytotoxic Doses
Experimentally, the study was also carried out on a cell line of immortalized keratinocytes “HaCaT” seeded in 24-well plates at a rate of 8000 cells per square centimeter, namely 15200 cells per welkin 0.5 ml culture medium (with 10% foetal calf serum).
500 μl of the conjugate according to the invention were added in each well at a concentration from 0.05 to 0.5 mM in PBS. The cells in the presence of active ingredient were then exposed to ultraviolet radiations (UV-B) at the moderate dose of 100 mJ·cm−^2, and then placed into a medium without active ingredient for 24 hours. After removal of the medium, the HaCaT keratinocytes cell viability was also measured using the “MTT method” (solution at 250 μg/ml) and by spectrophotometry (absorbance at 570 nm). Gathering the average values obtained from three independent experiments, the results are presented in table 3 below, in comparison with those obtained for two controls, the non-irradiated cells and the non-treated irradiated cells with the conjugates according to the invention.

[4] = Photo-isomerization of (Z)-isomer conjugates to E-isomer under UV-B irradiation (HPLC); format: physicochemical; conditions: 2.5 mM in methanol with squalene; UV-B irradiation dose 1 J·cm−2; formation of E-isomer by HPLC
Experimental: Test 4: Evidence of the Ability of the (Z)-Isomer Conjugates of Formula (I) to Absorb Ultraviolet Radiation by Photo-Isomerization
Principle: the aim is to check whether the conjugates according to the invention are able to isomerize under UV-B irradiation.
Experimentally, 2 ml of a squalene solution at 5 g/100 mL and 2 mL of a solution of compound according to the invention at the concentration of 25 mM in methanol were introduced into a 20 mL measuring cylinder, and then supplemented with methanol up to 20 mL. The preparation thus obtained was poured into a Petri dish onto which an irradiation dose of 1 J·cm^−2 was applied in a UV-B oven. At the end of the irradiation, the solutions were collected and analyzed by HPLC dosage. Volumes were previously standardized with methanol.
Chromatographic profiles were thus obtained, and the formation of the E-isomer was investigated. An isomerization rate was then determined by comparison with a control profile.

HaCaT keratinocytes [5] = experiment: Cytotoxic potential of sulfoxide and sulfone oxidation by-products on HaCaT keratinocytes (MTT method); format: cell-based; conditions: 2.5 mM in PBS, average of three independent experiments, control = 100
Experimental: Test 2: Evidence of the Absence of Cytotoxic Potential of the Oxidation by-Products of the (Z)-Isomer Conjugates of Formula (I)
Experimentally, the test was carried out on a cell line of immortalized keratinocytes “HaCaT” maintained by subculture in a complete culture medium “DMEM” (with 10% foetal calf serum) in a humid atmosphere at 37° C. and 5% CO2. HaCaT cells were seeded in 24-well plates at the rate of 1·10^5 cells per well.
Sulfoxide and sulfone derivatives of (Z)-isomer conjugates of formula (I) were synthesized after a stoichiometric exposure to hydrogen peroxide (H2O2), then purified and finally quantified.
500 μl of sulfoxide and sulfone oxidation by-products from the conjugates according to the invention were added in each well, at the concentration of 2.5 mM in PBS. After removal of the medium, the HaCaT keratinocytes cell viability was measured using the “MTT method” (MTT standing for (4,5-dimethylthiazol-2-yl)-2,5-diphenyltetrazolium bromide) (solution at 500 μg/ml) and by spectrophotometry (absorbance at 550 nm). Expressed as the average values obtained from three independent experiments, the results are gathered in table 2 below, in comparison with those obtained for the non-irradiated cells.

SMILES | % squalene protection ([2]; compound 1 mM in methanol) | % squalene protection ([2]; compound 5 mM in methanol) | viability at 500 µM (HaCaT keratinocytes [3]) | % isomerization [4] | other results
CS/C=C\C(=O)NCCc1ccc(O)cc1 [(Z)-N-(4-hydroxyphenethyl)-3-(methylthio)propenamide] | 35% | 44% | 100% | 95% | % inhibition of trans-urocanic acid photo-isomerization [1]: 78%; viability at 100 µM (HaCaT keratinocytes [3]): 70%; viability at 250 µM (HaCaT keratinocytes [3]): 93%
CS/C=C\C(=O)NCCO [(Z)-N-(2-hydroxyethyl)-3-(methylthio)propenamide] | 24% | 25% | 94% | 62% | % inhibition of trans-urocanic acid photo-isomerization [1]: 75%; viability at 100 µM (HaCaT keratinocytes [3]): 64%; viability at 250 µM (HaCaT keratinocytes [3]): 85%
CS(=O)(=S)/C=C\C(=O)NCCc1ccc(O)cc1 (stereo not shown) [(Z)-N-(4-hydroxyphenethyl)-3-(methylthiosulfonyl)propenamide] | – | – | – | – | % cell viability (HaCaT keratinocytes [5]): 95.0%
CS/C=C/C(=O)NCCc1ccc(O)cc1 [(E)-N-(4-hydroxyphenethyl)-3-(methylthio)propenamide] | 30% | – | – | – | –
CS(=O)(=S)/C=C\C(=O)NCCO (stereo not shown) [(Z)-N-(2-hydroxyethyl)-3-(methylthiosulfonyl)propenamide] | – | – | – | – | % cell viability (HaCaT keratinocytes [5]): 93.1%
CS/C=C/C(=O)NCCO [(E)-N-(2-hydroxyethyl)-3-(methylthio)propenamide] | 71% | – | – | – | –
CCNC(=O)/C=C\SC [(Z)-N-ethyl-3-(methylthio)propenamide] | – | – | 86% | 60% | –
CSCCCNC(=O)C(CCSC)NC(C)=O (stereo not shown) [AMDM, methylthiopropylamido acetyl methionine, reference compound] | 3% | 15% | – | – | –
